Results reported in US20200078379A1, “DEFEROXAMINE DERIVATIVES AS MEDICAMENTS” (BIOTECHNOLOGICKY USTAV AV CR, V.V.I., priority 2017, published 2020).
pIC50: −log10 of the molar value. Where two headings read alike, the source gives them in different places.

Experiments:
[1] = tested on: MCF7 cells; test: AnnexinV/PI cell death assay; assay type: cell-based, human; conditions: for mean percentage of dead cells (AnnexinV/PI): 48 hrs
Protocol: Briefly, cells were seeded in 12-well plate at 100,000 per well, incubated with the selected compounds for 48 hours, then floating cells were spun, adherent cells trypsinized and spun as well followed by the staining with AnnexinV-FITC and PI probes. Cells were then washed with PBS and measured via Fluorescence Activated Sorter.

[2] = tested on: MDA-MB-231 cells; test: cellular migration into scratch, JULI FL; assay type: cell-based, human
Protocol: (§1) In order to test the effect of compound 2 on cellular migration, we have seeded MCF7 or MDA-MB-231 cells in 12 well plates, let them reach confluence and then introduced a scratch in the monolayer with a 10 μl pipette tip.

[3] = tested on: MCF7 cells; test: cellular migration into scratch, JULI FL; assay type: cell-based, human
Protocol: as §1

[4] = tested on: non malignant cells (BJ); test: AnnexinV/PI cell death assay; assay type: cell-based; conditions: for mean percentage of dead cells (AnnexinV/PI): 48 hrs
Protocol: (§2) To confirm such findings by an independent method, cell death-inducing potency (cytotoxic efficacy) of DFO and compound 2 have been tested via annexin V/PI staining commonly used as a measure of apoptotic/necrotic cell death. Briefly, cells were seeded in 12-well plate at 100,000 per well, incubated with the selected compounds for 48 hours, then floating cells were spun, adherent cells trypsinized and spun as well followed by the staining with AnnexinV-FITC and PI probes. Cells were then washed with PBS and measured via Fluorescence Activated Sorter.
We have then analyzed the percentage of death cells by the annexinV/PI staining as described in example 7. We have observed a significant potentiation in cell death induction when gallium was combined with compound 2 (Table 14)

[5] = tested on: T47D cells; test: AnnexinV/PI cell death assay; assay type: cell-based; conditions: 48 hrs
Protocol: as §2
Since compound 2 is an iron chelator, we have evaluated the effect of pretreating compound 2 with iron. at a 1:1 ratio by using the Annexin V/PI staining as in example 7.

[6] = tested on: SK-OV-3 cells; test: crystal violet assay, cellular viability; assay type: cell-based; conditions: Homo sapiens, SK-OV-3, 48 hours
[7] = tested on: BT474 cells; test: AnnexinV/PI cell death assay; assay type: cell-based; conditions: 48 hrs
Protocol: as §2

[8] = tested on: BT549 cells; test: AnnexinV/PI cell death assay; assay type: cell-based; conditions: 48 hrs
Protocol: as §2

[9] = tested on: PaTu 8902 cells; test: crystal violet assay, cellular viability; assay type: cell-based; conditions: PaTu 8902, 48 hours
[10] = tested on: MDA-MB-231 cells; test: crystal violet assay, cellular viability; assay type: cell-based, human
Protocol: (§3) Compound 1 and compound 2 were tested in their efficacy to kill malignant MCF7 cancer cells. Briefly, 10.000 cells per well were seeded in a 96-well plat on one day and the next day selected compounds were added and incubated with the cells for 48 hrs. The cells were then fixed with 4% paraformaldehyde, stained with 0.05% crystal violet, washed with PBS, and solubilized in 1% SDS. The absorbance of the plate at 595 nm was then measured, quantifying the number of viable cells.
(§4) A number of compounds of the present invention were tested for cytotoxicity towards at least some of human breast cancer cell lines (MCF7, MDA-MB-231), human fibroblast (BJ) and murine triple negative breast cancer cell line 4T1 (Table 2).

[11] = tested on: MCF7 cells; test: crystal violet assay, cellular viability; assay type: cell-based, human
Protocol: as §3, §4

[12] = tested on: NIH:OVCAR-3 cells; test: crystal violet assay, cellular viability; assay type: cell-based; conditions: Homo sapiens, NIH:OVCAR-3, 48 hours
[13] = tested on: AsPC-1 cells; test: crystal violet assay, cellular viability; assay type: cell-based; conditions: Homo sapiens, ASPC1, AsPC-1, 48 hours
[14] = tested on: MCF7 cells; test: cellular respiration, OXYGRAPH instrument; assay type: cell-based, human
Excerpt: Application of compound 2 leads to marked inhibition of cellular respiration as evidenced by two independent methods: the Oxygraph instrument (Rohlenova, K., Sachaphibulkij, K., Stursa, J., Bezawork-Geleta, A., Blecha, J., Endaya, B., Werner, L., Cerny, J., Zobalova, R., Goodwin, J., Spacek, T., Alizadeh, P. E., Yan, B., Nguyen, M. N., Vondrusova, M., Sobol, M., Jezek, P., Hozak, P., Truksa, J., Rohlena, J., Dong, L. F., & Neuzil, J. (2017) Selective Disruption of Respiratory Supercomplexes as a New Strategy to Suppress Her2high Breast Cancer. Antioxid. Redox. Signal., 26, 84-103) (Table 6) and Seahorse instrument (Table 7). For Seahorse analysis, 20.000 or 30.000 cells were seeded in 96 well plates and incubated with compound 2 for 1 hour. Afterwards, oxygen consumption rate (OCR) and extracellular acidification rate (ECAR) were measured in three cycles of 3 minutes preceded by 3 minutes of mixing, using a Seahorse XFe96 analyzer (Agilent). Results express the mean values of the three cycles.

CC(=O)N(O)CCCCCNC(=O)CCC(=O)N(O)CCCCCNC(=O)CCC(=O)N(O)CCCCCN(CCCCCCCCCC[P+](c1ccccc1)(c1ccccc1)c1ccccc1)CCCCCCCCCC[P+](c1ccccc1)(c1ccccc1)c1ccccc1.[Cl-].[Cl-] [Compound 2, Triphenyl(3,14,25-trihydroxy-2,10,13,21,24-pentaoxo-31-(10-(triphenylphosphonio)decyl)-3,9,14,20,25,31-hexaazahentetracontan-41-yl)phosphonium chloride]
mean percentage of dead cells (AnnexinV/PI) ([1]; MCF7, 5 μM): 35.6% | mean percentage of dead cells (AnnexinV/PI) ([1]; MCF7, 10 μM): 43.7% | mean percentage of dead cells (AnnexinV/PI) ([1]; MCF7, 20 μM): 64.0% | percentage of death cells by annexinV/PI staining ([1]; MCF7, ratio Ga:compound 2 0:1, 10 μM compound 2 alone): 35.3 (0.5) | mean percentage of non-invaded portion of the scratch ([2]; MDA-MB-231, 0 h, 1 μM): 100 (5.5) % | mean percentage of non-invaded portion of the scratch ([2]; MDA-MB-231, 0 h, 2 μM): 100 (7.4) % | mean percentage of non-invaded portion of the scratch ([2]; MDA-MB-231, 0 h, 5 μM): 100 (6.5) % | mean percentage of non-invaded portion of the scratch ([2]; MDA-MB-231, 24 h, 1 μM): 40.7 (8.9) % | mean percentage of non-invaded portion of the scratch ([2]; MDA-MB-231, 24 h, 2 μM): 42.7 (8.0) % | mean percentage of non-invaded portion of the scratch ([2]; MDA-MB-231, 24 h, 5 μM): 48.4 (8.9) % | mean percentage of non-invaded portion of the scratch ([2]; MDA-MB-231, 48 h, 1 μM, cells started to die at 48 hrs): 61.7 (6.7) % | mean percentage of non-invaded portion of the scratch ([2]; MDA-MB-231, 48 h, 2 μM, cells started to die at 48 hrs): 76.2 (13.3) % | mean percentage of non-invaded portion of the scratch ([2]; MDA-MB-231, 48 h, 5 μM, cells started to die at 48 hrs): 98.5 (9.1) % | mean percentage of non-invaded portion of the scratch ([3]; MCF7, 0 h, 1 μM): 100 (4.1) % | mean percentage of non-invaded portion of the scratch ([3]; MCF7, 0 h, 2 μM): 100 (4.8) % | mean percentage of non-invaded portion of the scratch ([3]; MCF7, 0 h, 5 μM): 100 (4.4) % | mean percentage of non-invaded portion of the scratch ([3]; MCF7, 24 h, 1 μM): 78.8 (5.2) % | mean percentage of non-invaded portion of the scratch ([3]; MCF7, 24 h, 2 μM): 79.2 (1.1) % | mean percentage of non-invaded portion of the scratch ([3]; MCF7, 24 h, 5 μM): 83.8 (0.6) % | mean percentage of non-invaded portion of the scratch ([3]; MCF7, 48 h, 1 μM): 61.8 (5.3) % | mean percentage of non-invaded portion of the scratch ([3]; MCF7, 48 h, 2 μM): 66.1 (1.1) % | mean percentage of non-invaded portion of the scratch ([3]; MCF7, 48 h, 5 μM): 78.8 (0.6) % | mean percentage of dead cells (AnnexinV/PI) ([4]; 5 μM): 6.7% | mean percentage of dead cells (AnnexinV/PI) ([4]; 10 μM): 9.0% | mean percentage of dead cells (AnnexinV/PI) ([4]; 20 μM): 29.8% | concentrations at which toxic effect could be detected in non-malignant BJ cells ([4]; AnnexinV/PI, 48 hours): higher than 2004 | percentage of death cells by annexinV/PI staining ([4]; ratio Ga:compound 2 0:1, 10 μM compound 2 alone): 9.0 (3.5) | mean percentage of dead cells (AnnexinV/PI) ([5]; 5 μM): 38.3 (5.8) % | mean percentage of dead cells (AnnexinV/PI) ([5]; 10 μM): 41.2 (3.1) % | mean percentage of dead cells (AnnexinV/PI) ([5]; 20 μM): 93.6 (1.3) % | pIC50 [6]: 5.29 | mean percentage of dead cells (AnnexinV/PI) ([7]; BT474, 5 μM): 18.6% | mean percentage of dead cells (AnnexinV/PI) ([7]; BT474, 10 μM): 39.9% | mean percentage of dead cells (AnnexinV/PI) ([7]; BT474, 20 μM): 92.5% | mean percentage of dead cells (AnnexinV/PI) ([8]; BT549, 5 μM): 31.8% | mean percentage of dead cells (AnnexinV/PI) ([8]; BT549, 10 μM): 52.3% | mean percentage of dead cells (AnnexinV/PI) ([8]; BT549, 20 μM): 80.4% | pIC50 [9]: 5.26 | Selectivity index (IC50 non-malignant/IC50 malignant) ([10]; BJ vs MDA-MB-231, 48 hours): 2.64 | pIC50 ([10]; Homo sapiens, MDA-MB-231, 48 h, read-out: IC50 cellular viability): 5.27 | Selectivity index (IC50 non-malignant/IC50 malignant) ([11]; BJ vs MCF7, 48 hours): 12.43 | pIC50 ([11]; Homo sapiens, MCF7, 48 h, crystal violet, read-out: IC50 cellular viability): 5.92 | pIC50 ([11]; Homo sapiens, MCF7, MCF7 Parental, read-out: IC50 crystal violet): 5.82 | viability at 1 µM ([11]; Homo sapiens, MCF7, 1 μM, 48 hrs, crystal violet, read-out: mean percentage of viable cells compared to non-treated controls): 56.9% | viability at 2 µM ([11]; Homo sapiens, MCF7, 2 μM, 48 hrs, crystal violet, read-out: mean percentage of viable cells compared to non-treated controls): 20% | viability at 5 µM ([11]; Homo sapiens, MCF7, 5 μM, 48 hrs, crystal violet, read-out: mean percentage of viable cells compared to non-treated controls): 10% | viability at 10 µM ([11]; Homo sapiens, MCF7, 10 μM, 48 hrs, crystal violet, read-out: mean percentage of viable cells compared to non-treated controls): 12.1% | pIC50 [12]: 5.43 | pIC50 [13]: 5.59 | mean O2 flow per cells ([14]; MCF7, 5 μM): 15.9 pmol/s/mL | mean O2 flow per cells ([14]; MCF7, 5 μM (5 h)): 9.8 pmol/s/mL | mean O2 flow per cells ([14]; MCF7, 25 μM): 7.1 pmol/s/mL
